Assay results reported in publication PMC7144120, “Psoralen Derivatives as Inhibitors of Mycobacterium tuberculosis Proteasome” (Molecules, 2020).
Entries after “also recorded” stand apart in the source; their conditions may differ. Like-named read-outs stand apart in the source and are kept apart here. *1 amine or outer side, *2 acyl side, *3 side chain or, on linkers, in order; H or OH if unused. Where a SMILES comes first, the peptide text is derived from it. The star is where a group is joined. AMC = Cc1cc(=O)oc2cc(N*)ccc12; Suc = O=C(CCC(=O)[*:2])[*:1]

Columns and labels:
[1] = target: T1, Mtb proteasome (Mycobacterium tuberculosis, UniProt P9WHT9); assay: biochemical; assay type: biochemical; conditions: for IC50: 50 µM Suc-LLVY-AMC, 30 min preincubation, 37 °C, triplicate, read-out: IC50 against the Mtb proteasome; for Hill Coefficient: from IC50 curve, Mtb proteasome
T1 construct: made in house

[2] = target: T1, Mtb proteasome; assay: Determination of Ki and type of inhibition (varied substrate concentration, GraphPad Prism model fit); assay type: biochemical; conditions: for Ki: best scoring inhibition model; for Type of Inhibition: best ranking model (mixed, competitive, noncompetitive, uncompetitive)
Procedure: The concentrations of 11, 13 and 15 were 0, 0.56, 0.81, 1.15, 1.65, 2.35, 4.80, 9.80 and 20 µM. Further, the concentrations for compound 8 were 0, 1.65, 2.35, 4.80, 9.80 µM and for bortezomib 0, 0.28, 0.40, 0.58, 0.82, 1.18, 2.40, 4.90 and 10 µM. All experiments were performed in triplicate. The resulting data were analyzed using the GraphPad Prism 6 software and were fitted to the software provided models for competitive, noncompetitive, uncompetitive and mixed type enzyme inhibition. The mode of inhibition and Ki values were chosen from the best ranking model, as determined by the software. Representative graphs (Michaelis-Menten, Dixon and Lineweaver-Burk plots) depicting the data fit for the best ranking model of inhibition for all compounds are shown in the Supplementary data (Figures S2–S19).

[3] = target: T1, Mtb proteasome; assay type: biochemical; conditions: for Reversibility of inhibition: Mtb proteasome, 100-fold dilution after preincubation; for Reversibility of inhibition at lower concentrations: concentrations ≤ IC50
[4] = test system: ß5i of IP; conditions: cited from earlier work; for IC50: read-out: IC50 against ß5i of IP; for RA at 10 µM against ß5i of IP: residual activity of β5i in the presence of 10 μM compound; for Ki: read-out: Ki against ß5i of IP
[5] = target: T1, Mtb proteasome; design: method as in PMID 16468985; conditions: substrate of Mtb proteasome; read-out: Km (literature value); cited from earlier work
[6] = test system: Cc1cc(=O)oc2cc(NC(=O)[C@H](Cc3ccc(O)cc3)NC(=O)[C@@H](NC(=O)[C@H](CC(C)C)NC(=O)[C@H](CC(C)C)NC(=O)CCC(=O)O)C(C)C)ccc12; assay: purified protein, by the assay type; conditions: other: substrate of Mtb proteasome, 10 nM enzyme
Procedure: Additionally, the Km of the substrate Suc-LLVY-AMC was calculated based on the initial velocity of the enzymatic reaction using 10 nM Mtb proteasome at various concentration of the substrate (12.5, 25, 50, 100, 250, 500 µM).

T1 sequence (P9WHT9 whole entry, looked up): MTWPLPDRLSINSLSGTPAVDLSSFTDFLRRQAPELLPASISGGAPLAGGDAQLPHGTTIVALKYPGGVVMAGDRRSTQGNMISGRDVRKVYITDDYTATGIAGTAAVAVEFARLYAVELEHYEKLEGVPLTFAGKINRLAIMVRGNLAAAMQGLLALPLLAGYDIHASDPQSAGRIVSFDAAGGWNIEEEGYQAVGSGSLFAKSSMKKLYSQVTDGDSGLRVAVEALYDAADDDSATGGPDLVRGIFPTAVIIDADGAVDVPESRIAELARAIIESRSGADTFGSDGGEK

Cc1c(CCC(=O)ON2C(=O)CCC2=O)c(=O)oc2cc3occ(-c4ccco4)c3cc12 [Compound 11]
IC50 [1]: 8.8 ± 1 µM
Hill Coefficient [1]: 0.90
α (mixed inhibition model) [2]: 6.67
Ki ([2]; Ki): 4.2 µM
Type of Inhibition [2]: mixed type of inhibition
Reversibility of inhibition [3]: partially reversible inhibition; also recorded: (Partially) reversible inhibition
Reversibility of inhibition at lower concentrations [3]: reversible inhibition
IC50 [4]: 0.94 µM

Cc1c(CCC=O)c(=O)oc2cc3c(cc12)C(c1ccccc1)CO3 (stereo not shown) [Compound 15]
IC50 [1]: 5.8 ± 2.1 µM
Hill Coefficient [1]: 0.55
α (mixed inhibition model) [2]: 0.22
Type of Inhibition [2]: mixed type of inhibition
Ki ([2]; read-out: Ki): 14.9 µM
Reversibility of inhibition [3]: reversible inhibitors; also recorded: Reversible inhibition

CC(C)C[C@H](NC(=O)[C@H](Cc1ccccc1)NC(=O)c1cnccn1)B(O)O [Bortezomib, reference compound]
IC50 [1]: 0.11 ± 0.03 µM
Hill Coefficient [1]: 0.76
α (mixed inhibition model) [2]: 0.85
Ki ([2]; Ki): 0.133 µM
Type of Inhibition [2]: Mixed inhibition
Type of Inhibition ([2]; listed as bortezomib): mixed type of inhibition
proteasome activity retained ([3]; 5 × IC50 concentration, 0-, 15-, 30- or 60-min preincubation at 25 °C): approximately 55%
Reversibility of inhibition [3]: (Slow) reversible inhibition
Reversibility of inhibition ([3]; listed as bortezomib): “slow/partially” reversible
loss of enzyme activity compared to the DMSO control ([3]; concentrations equal or higher than IC50, longer preincubation time): ≤ 45%
IC50 [4]: 0.004 µM

Cc1cc(=O)oc2cc(NC(=O)[C@H](Cc3ccc(O)cc3)NC(=O)[C@@H](NC(=O)[C@H](CC(C)C)NC(=O)[C@H](CC(C)C)NC(=O)CCC(=O)O)C(C)C)ccc12 [Suc-LLVY-AMC] (Suc-LLVY-{AMC})
Km [5]: 56 ± 15 µM

Cc1cc(-c2coc3cc4oc(=O)c(CC(=O)ON5C(=O)CCC5=O)c(C)c4cc23)c(C)s1 [Compound 13]
IC50 [1]: 3.2 ± 0.3 µM
Hill Coefficient [1]: 0.90
Ki ([2]; Ki): 1.1 µM
Type of Inhibition [2]: mixed type of inhibition
Reversibility of inhibition [3]: partially reversible inhibition; also recorded: (Partially) reversible inhibition
Reversibility of inhibition at lower concentrations [3]: reversible inhibition
IC50 [4]: 4.4 µM

Mtb proteasome (Mycobacterium tuberculosis H37Rv)
Km [6]: ^aKi determined with GraphPad Prism by fitting the data to several inhibition models (mixed, competitive, noncompetitive, uncompetitive). The best scoring model was further examined by creating Dixon, Lineweaver-Burk and Michaelis-Menten plots. Km for Suc-LLVY-AMC is 60 ± 15 µM (see Supplementary data for details). ND, not determined. ^b The data were calculated as residual activities (RAs) of β5i in the presence of 10 μM of each compound (standard errors for RAs were < 15%). µM

Cc1c(CCC(=O)NCC#N)c(=O)oc2cc3occ(C(C)(C)C)c3cc12 [Compound 8]
IC50 [1]: 3.7 ± 1.5 µM
Hill Coefficient [1]: 1.05
α (mixed inhibition model) [2]: 0.19
Ki ([2]; Ki): 5.6 µM
Type of Inhibition [2]: mixed type of inhibition
Reversibility of inhibition [3]: reversible inhibitors; also recorded: Reversible inhibition
RA at 10 µM against ß5i of IP [4]: 100%

C=CC(=O)NCc1c(C)c2cc3c(-c4ccccc4)coc3cc2oc1=O [Compound 82]
RA at 100 µM against Mtb [1]: 68%
RA at 10 µM against ß5i of IP [4]: 90%

Cc1c(CCC(=O)N(C)CC#N)c(=O)oc2cc3occ(-c4ccc(Br)cc4)c3cc12 [Compound 41]
RA at 100 µM against Mtb [1]: 91%
RA at 10 µM against ß5i of IP [4]: 107%

Cc1c(CC(=O)N(C)CC#N)c(=O)oc2cc3occ(-c4ccccc4)c3cc12 [Compound 51]
RA at 100 µM against Mtb [1]: 93%
RA at 10 µM against ß5i of IP [4]: 97%

Cc1c(CC(=O)N(C)CC#N)c(=O)oc2cc3occ(-c4ccc(Br)cc4)c3cc12 [Compound 52]
RA at 100 µM against Mtb [1]: 70%
RA at 10 µM against ß5i of IP [4]: 86%

Cc1cc(-c2coc3cc4oc(=O)c(CC(=O)NCC#N)c(C)c4cc23)c(C)o1 [Compound 10]
IC50 [1]: 3 ± 2 µM
Hill Coefficient [1]: 4.46
RA at 10 µM against ß5i of IP [4]: 100%

Cc1c(-c2nsc(=O)o2)c(=O)oc2cc3occ(-c4ccccc4)c3cc12 [Compound 88]
RA at 100 µM against Mtb [1]: 84%
IC50 [4]: 0.013 ± 0.004 µM

Cc1c(CC(=O)ON2C(=O)CCC2=O)c(=O)oc2cc3occ(C4CCCCC4)c3cc12 [Compound 78]
RA at 100 µM against Mtb [1]: 98%
RA at 10 µM against ß5i of IP [4]: 62%

O=C(O)Cc1cc2cc3c(-c4ccccc4)coc3cc2oc1=O [Compound 34]
RA at 100 µM against Mtb [1]: 54%
Ki [4]: 3.8 ± 1.1 µM

Cc1c(CC(=O)ON2C(=O)CCC2=O)c(=O)oc2cc3occ(C(C)(C)C)c3cc12 [Compound 75]
RA at 100 µM against Mtb [1]: 88%
RA at 10 µM against ß5i of IP [4]: 53%

Cc1c(CCC(=O)O)c(=O)oc2cc3occ(C(C)(C)C)c3cc12 [Compound 19]
RA at 100 µM against Mtb [1]: 95%
RA at 10 µM against ß5i of IP [4]: 83%

Cc1cc(-c2coc3cc4oc(=O)c(CC(=O)ON5C(=O)CCC5=O)c(C)c4cc23)c(C)o1 [Compound 14]
IC50 [1]: 9 ± 5 µM
Hill Coefficient [1]: 2.42
IC50 [4]: 6.9 µM

Cc1c(CCC(=O)O)c(=O)oc2c(C)c3occ(-c4ccc(Br)cc4)c3cc12 [Compound 5]
IC50 [1]: 17 ± 3 µM
Hill Coefficient [1]: 0.70
RA at 10 µM against ß5i of IP [4]: 93%

Cc1c(CC(=O)ON2C(=O)CCC2=O)c(=O)oc2cc3occ(-c4ccco4)c3cc12 [Compound 77]
RA at 100 µM against Mtb [1]: 56%
RA at 10 µM against ß5i of IP [4]: 44%

Cc1c(CC(=O)N(C)CC#N)c(=O)oc2cc3occ(C(C)(C)C)c3cc12 [Compound 53]
RA at 100 µM against Mtb [1]: 97%
RA at 10 µM against ß5i of IP [4]: 96%

Cc1cc(-c2coc3cc4oc(=O)c(CC(=O)NCC#N)c(C)c4cc23)c(C)s1 [Compound 63]
RA at 100 µM against Mtb [1]: 95%
RA at 10 µM against ß5i of IP [4]: 101%

Cc1c(CC(=O)NCC#N)c(=O)oc2cc3occ(-c4ccc(Br)cc4)c3cc12 [Compound 60]
RA at 100 µM against Mtb [1]: 87%
RA at 10 µM against ß5i of IP [4]: 105%

Cc1c(CC(=O)ON2C(=O)CCC2=O)c(=O)oc2cc3occ(-c4ccccc4)c3cc12 [Compound 73]
RA at 100 µM against Mtb [1]: 79%
IC50 [4]: 6.36 ± 0.61 µM

Cc1c(CC(=O)NCC#N)c(=O)oc2cc3occ(C(C)(C)C)c3cc12 [Compound 61]
RA at 100 µM against Mtb [1]: 92%
RA at 10 µM against ß5i of IP [4]: 91%

Cc1c(CCC(=O)O)c(=O)oc2cc3occ(-c4ccc(Br)cc4)c3cc12 [Compound 1]
IC50 [1]: 39 ± 7 µM
Hill Coefficient [1]: 0.69
Ki [4]: 137 µM

CC=CC(=O)NCc1c(C)c2cc3c(-c4ccccc4)coc3cc2oc1=O [Compound 83]
RA at 100 µM against Mtb [1]: 52%
RA at 10 µM against ß5i of IP [4]: 116%

Cc1coc2cc3oc(=O)c(CCC(=O)O)c(C)c3cc12 [Compound 20]
RA at 100 µM against Mtb [1]: 93%
RA at 10 µM against ß5i of IP [4]: 94%

COc1ccc(-c2coc3cc4oc(=O)c(CC(=O)O)c(C)c4cc23)cc1 [Compound 26]
RA at 100 µM against Mtb [1]: 50%
Ki [4]: 8.2 ± 0.5 µM

Cc1cc(-c2coc3cc4oc(=O)c(CCC(=O)O)c(C)c4cc23)c(C)s1 [Compound 21]
RA at 100 µM against Mtb [1]: 99%
Ki [4]: 52.3 ± 18 µM

C/C=C/C(=O)Nc1c(C)c2cc3c(-c4ccccc4)coc3cc2oc1=O [Compound 87]
RA at 100 µM against Mtb [1]: 93%
RA at 10 µM against ß5i of IP [4]: 102%

Cc1cc(-c2coc3cc4oc(=O)c(CC(=O)O)c(C)c4cc23)c(C)s1 [Compound 30]
RA at 100 µM against Mtb [1]: 93%
Ki [4]: 36.5 ± 7.1 µM

Cc1c(CC(=O)O)c(=O)oc2cc3occ(C4CCCCC4)c3cc12 [Compound 33]
RA at 100 µM against Mtb [1]: 90%
Ki [4]: 198 ± 21 µM

Cc1coc2cc3oc(=O)c(CC(=O)O)c(C)c3cc12 [Compound 29]
RA at 100 µM against Mtb [1]: 61%
RA at 10 µM against ß5i of IP [4]: 88%

Cc1c(N)c(=O)oc2cc3occ(-c4ccccc4)c3cc12 [Compound 84]
RA at 100 µM against Mtb [1]: 100%
RA at 10 µM against ß5i of IP [4]: 88%

Cc1coc2cc3oc(=O)c(CC(=O)ON4C(=O)CCC4=O)c(C)c3cc12 [Compound 76]
RA at 100 µM against Mtb [1]: 53%
RA at 10 µM against ß5i of IP [4]: 101%
